Data on two molecules can be found in patent publication US7887833B2, “Amphiphilic compounds and vesicles liposomes for organ-specified drug targeting” (Ben-Gurion University of the Negev Research and Development …, priority 2001, dated 2011).

Structures are written as SMILES.

Holding throughout (format): biochemical
The target in test [1] is T1, aromatic L-amino acid decarboxylase (AADC) (Rattus norvegicus, UniProt P14173).
T1 construct: rat liver homogenate served as the source for AADC; from tissue; host or cells: rat liver homogenate
T1 sequence (P14173 1-480): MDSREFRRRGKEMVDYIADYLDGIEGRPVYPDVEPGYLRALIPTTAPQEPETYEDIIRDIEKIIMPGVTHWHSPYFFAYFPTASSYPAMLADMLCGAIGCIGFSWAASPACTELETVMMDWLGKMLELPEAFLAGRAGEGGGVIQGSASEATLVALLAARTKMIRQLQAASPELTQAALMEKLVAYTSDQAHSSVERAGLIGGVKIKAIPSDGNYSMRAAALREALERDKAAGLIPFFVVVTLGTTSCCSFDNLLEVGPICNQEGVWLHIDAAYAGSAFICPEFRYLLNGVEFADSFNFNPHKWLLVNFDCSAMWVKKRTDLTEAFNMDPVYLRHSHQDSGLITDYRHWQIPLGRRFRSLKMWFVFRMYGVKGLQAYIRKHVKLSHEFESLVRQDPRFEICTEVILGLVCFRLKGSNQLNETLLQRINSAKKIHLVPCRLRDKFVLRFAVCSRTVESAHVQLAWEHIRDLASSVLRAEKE
Kind of test: Decarboxylation of headgroup by AADC from rat liver homogenate (HPLC, electrochemical detector). From the text: Derivative 5 contains an aromatic amino acid moiety as a headgroup. This negatively charged headgroup, at physiological pH, may be a suitable substrate for the enzyme aromatic L-amino acid decarboxylase (AADC). Upon exposure to AADC, the headgroup of Derivative 5 should be converted to an amine thus changing the nature of the headgroup (from a carboxyl to amine) in a way that can result in destabilization of vesicles made from Derivative 5.
To test whether Derivative 5 could serve as a substrate for AADC, rat liver homogenate served as the source for AADC and the following experiment was carried out. A methanol solution (0.005 ml) of Derivative 5 was added to a reaction mixture (0.5 ml final volume) containing potassium phosphate (50 mM, pH=7.0), dithiothreitol (1 mM), EDTA (0.2 mM), pyridoxal 5′-phosphate (0.01 mM), pargylin (0.1 mM), and rat liver homogenate adjusted to 5 mg protein. The final concentration of Derivative 5 was 1 mM. The reaction mixture was incubated at 37° C. for 60 min followed by the addition of 0.05 ml perchloric acid (70%) and neutralized by 4M KOH. The mixture was then centrifuged at 20.000 g for 10 min at 4° C. and 0.1 ml of the supernatant was injected into a C18-HPLC column. The presence of the amine, which was formed during the reaction, was determined by electrochemical detector. […]

Test [2] has as its system acetylcholinesterase (ACHE). Kind of test: Competition assay using the Elman's method (acetylthiocholine/DTNB). The settings on record: acetylthiocholine 1.5 mM, DTNB 0.5 mM, 3 units AChE, phosphate-buffered saline. The method, then:
(ii) Competition assay using the Elman's method: Hydrolysis of acetylthiocholine (ATC) releases thiocholine, which reduces 5,5′-dithiobis-2-nitrobenzoate (DTNB) giving rise to a yellow coloring of the solution. […] A series of solutions with varying concentrations of Derivatives 1 and 2 in methanol together with acetylthiocholine (1.5 mM), DTNB (0.5 mM), and with 3 units of acetylcholinesterase (ACHE) in phosphate-buffered saline, was prepared. The rate of appearance of yellow color was determined in each of the reaction mixtures. […] Thus, vesicles prepared from Derivative 1 are expected to disrupt faster than vesicles prepared from Derivative 2, when exposed to cholinesterases.

For another test, the system named is cholinesterases (ChE). Briefly: pH-stat method: hydrolysis of headgroups by cholinesterases of human serum. As to conditions: 100 mM solutions diluted 100 times, pH 9.0, human serum 0.1 ml, 15 min. As to the method:
The ability of cholinesterases (ChE) to hydrolyze Derivatives 1 and 2 was assessed using two methods:
(i) The pH-stat method: Hydrolysis of the acetylcholine ester headgroups of Derivative 1, as well as of acetylcholine (ACh), by cholinesterases (ChE), releases acetic acid into the solution. Hydrolysis of Derivative 2 by ChE releases choline and a free fatty acid. In both cases, the release of acid results in pH drop. The hydrolysis rate of these compounds can be determined by measuring the amount of NaOH needed to neutralize the acid generated during hydrolysis. Three solutions, 100 mM concentration each of acetylcholine (ACh) in water and of Derivatives 1 and 2 in methanol were prepared, then diluted 100 times with water (10 ml), and their pH was adjusted to pH 9.0 using 0.1M NaOH. The pH was monitored until it remained stable for 10 min (baseline). At this stage, human serum (0.1 ml) containing ChE, was added and each of the solutions was titrated with 0.05M NaOH in order to maintain pH 9.0. The amount of the NaOH needed to maintain constant pH was measured during 15 min. […] Thus vesicles prepared from Derivative 1 are expected to disrupt, in presence of ChE, faster than vesicles made from Derivative 2.

With `CCCCCC(OC(=O)CNc1ccc(CC(N)C(=O)O)cc1)C(O)CC=CCCCCCCCC(=O)NCCNC(=O)CCCCCCCC=CCC(O)C(CCCCC)OC(=O)CNc1ccc(CC(N)C(=O)O)cc1` (stereo not shown) [Derivative 5], the “decarboxylation to the amine (HPLC peak)” value in test [1] (1 mM, rat liver homogenate 5 mg protein, 37° C., 60 min) is on record as “decarboxylated”. The “amine peak in presence of benserazide” value in test [1] (benserazide 5×10^-5 M added to the reaction mixture) is listed as “not detectable”.
Consider `CCCCCC(OC(=O)C[N+](C)(C)CCOC(C)=O)C(O)CC=CCCCCCCCC(=O)NCCNC(=O)CCCCCCCC=CCC(O)C(CCCCC)OC(=O)C[N+](C)(C)CCOC(C)=O` (stereo not shown) [Derivative 1], for which, in test [2], the “competition with acetylthiocholine for the hydrolyzing enzyme (rate of appearance of yellow color)” value is “higher extent”. Also, the “hydrolysis rate (NaOH needed to maintain constant pH)” value in the test with cholinesterases (ChE) is “faster hydrolysis”.
